Here are results for four compounds from patent US20130072506A1, “6,8-DISUBSTITUTED PURINE COMPOSITIONS” (priority 2011, published 2013).

The structures appear in SMILES notation.

Data set [1] concerns SKH-1 hairless mice. Description: Hairless mouse assay: epidermal bromodeoxyuridine (BrdU) staining. The format is in vivo. The following applies: for Mean Nuclei Stained: epidermal BrdU staining after 3 weeks of topical treatment, 0.1% (tretinoin 0.05%). The text has this: This study determined the effect of topical compound formulations on epidermal cell proliferation using bromodeoxyuridine as an immunohistochemical marker of cell proliferation. Histological examination of the treated and control skin were used to determine cutaneous effects of the topical compounds. Topical tretinoin 0.05% (Renova™) was used as a therapeutic control.
(§1) Experimental Design. 48 female SKH-1 hairless mice (5 weeks old, 20-25 grams, Charles River Laboratories, Wilmington, Mass.) are individually housed in filter-top cages, and acclimated for 5-7 days after delivery. The mice are divided into 8 treatment groups (n=6), including two different control groups (untreated control, vehicle control) and a therapeutic control (tretinoin 0.05% Renova™ cream). Cage cards are marked to indicate treatment groups 1-8. Water and mouse chow are provided ad libitum.
(§2) Topical Treatments. Beginning on Treatment Day 1, test products are applied topically each morning (Monday through Friday) after erythema evaluations for 3 weeks. Using a positive displacement pipette, 20 mg of each agent is applied to a 2 cm×2 cm area of the center midline of the back. The material was spread across the treatment area with the pipette tip.
Bromodeoxyuridine Injection. All animal groups are injected with bromodeoxyuridine (100 mg/kg) I.P. 4 hours after the final application. Animals are sacrificed by CO2 inhalation 3 hours later followed by cervical dislocation. The test sites are excised, and 6 mm punch biopsies are obtained from each treatment site, and from untreated controls. Biopsies are placed into labeled vials containing 4% neutral buffered formalin for paraffin embedding and anti-BrdU staining.
Bromodeoxyuridine Immunohistochemical Staining. Paraffin sections are cut to a […] thickness and stained using the BrdU Immuno-histochemistry kit (X1545K from Exalpha Biologicals, Inc.) and a standard staining protocol. The slides are weakly counterstained in Mayer's hematoxylin and scored under a light microscope for the number of BrdU-positive cells per mm of epidermis for each section. The data are expressed as mean BrdU-positive cells/mm for each treatment group. Differences in BrdU labeling in the treatment groups are statistically analyzed using the Students t-test. Representative photographs are taken of the histological sections of the BrdU-positive staining cells.
(Dividing cells build labelled thymidine or BrdU into new DNA.)

Data set [2] deals with SKH-1 hairless mice. Description: Hairless mouse assay: skin moisture content. The format is in vivo. The conditions noted are these: for average moisture content: compared with the vehicle.
Text: Evaluation of cutaneous effects of new topical compounds in the hirless mouse assay. The purpose of this study was to evaluate new topical compounds for their safety and efficacy as topical skin anti-aging treatments. The hairless mouse model is a well established model for studying the treatments of photoaging. […] The present study was used to investigate a new class of anti-aging compounds in comparison to classical ones. […] Topical compounds and vehicle controls were be applied daily (Monday-Friday) for 3 weeks to the dorsal skin of hairless mice. At baseline (prior to the 1st treatment), and weekly, the dorsal skin was measured for: transepidermal water loss (TEWL); skin moisture content; and skin elasticity.
as §1
Skin Moisture Content & Elasticity. The measurements of skin moisture content and skin elasticity are important noninvasive methods used to characterize the effects of moisturizers and anti-wrinkle effects on skin. A DermaLab™ combination instrument were used to measure the skin moisture content and elasticity of the target skin sites at baseline and at weekly intervals. This instrument is equipped with dual probes which are placed on the skin surface and a quantitative measurement taken of the respective parameters and the measurements recorded on an integrated computer. Mean measurements was determined for each treatment group over time, and comparative statistics used to evaluate product effectiveness.
as §2

In data set [3] the test system is mitochondria of ASF-2 cells. Kind of data set: JC-1 staining of mitochondria. Type of data set: cell-based, human. The conditions noted are these: 3 days pre-treatment of dermal fibroblasts. How it is done: All cell culture experiments were performed on early and mid passage cultures (about 20 to 40% lifespan completed) of normal human skin fibroblast line, designated ASF-2. In order to check the effects of test compounds on senescent cells, late passage cells with more than 90% lifespan completed were used. ASF-2 cell line was established from a mammary skin biopsy obtained from a young, non-smoking and healthy […] at the time of breast reduction operation. Normal culture conditions of medium (DMEM) containing antibiotics, 10% foetal calf serum, and incubation at 37° C. with 95% humidity were used. The effects of the test compounds were determined using the following procedures.
Briefly, stock solution of JC-1 (Sigma, M2128) was made at 1 mg/ml in dimethyl sulfoxide. Fresh staining solution […] was prepared by diluting the stock solution in warm (37° C.) culture medium supplemented with 10% calf serum (final conc. 1 μg/ml). Around 3000 cells/ml were seeded in 4 chambered flasks. After three days of incubation, medium is aspirated and one ml of JC-1 staining medium is added, after incubation for 10 mins a cover slip is quickly added and viewed under fluorescent microscope at excitation wavelengths of 488 and 647 nm. […] On depolarization, the orange red punctate staining is replaced by diffuse green monomer fluorescence.

The conditions of data set [4]: clinical experience / previous clinical studies; cited from earlier work.
The test system of data set [5] is SKH-1 hairless mice. Kind of data set: Hairless mouse assay: erythema scoring (skin irritation). The format is in vivo. The conditions noted are these: topical, daily, 1 to 3 weeks. Also on record: key: 0: No response; 1: Very slight redness; 2: Slight redness; 3: Moderate redness/irritation; 4: Severe redness/irritation; 5: Very severe redness/irritation; 6: Necrosis. The text has this: Evaluation of cutaneous effects of new topical compounds in the hirless mouse assay. The purpose of this study was to evaluate new topical compounds for their safety and efficacy as topical skin anti-aging treatments. The hairless mouse model is a well established model for studying the treatments of photoaging. This model has been used to study mechanisms, define effective treatment regimens and assess safety for retinoids and other anti-aging products. The present study was used to investigate a new class of anti-aging compounds in comparison to classical ones. Recent clinical studies have shown that this class of compounds improve the appearance of photodamaged skin and decrease transepidermal water loss (TEWL) without causing skin irritation. This study investigated the mechanisms of how these compounds affect the skin aging process and help to identify new compounds which are safe and effective for preventing and improving the clinical features of photoaged skin. Topical compounds and vehicle controls were be applied daily (Monday-Friday) for 3 weeks to the dorsal skin of hairless mice. At baseline (prior to the 1st treatment), and weekly, the dorsal skin was measured for: transepidermal water loss (TEWL); skin moisture content; and skin elasticity.
Experimental Design. […]
Technical staff recorded erythema scores for all animals each morning. […]

The subject of data set [6] is SKH-1 hairless mice. Kind of data set: Hairless mouse assay: skin histology and skin compartment measurements. The format is in vivo. The following applies: after 3 weeks of treatment.
Text: as §1, §2
Skin Histology. Skin biopsies are taken of each treatment site and untreated control skin. Biopsies are fixed in 4% neutral buffered formalin, embedded in paraffin, and stained with hematoxylin and eosin. The stained skin sections are examined to determine the effects of the treatment on epidermal, dermal, and stratum corneum histology. Biopsies are also microscopically examined for inflammatory cells.
Skin Compartment Measurements. The H&E stained biopsy slides were imaged using a trinocular Olympus BH-2 microscope fitted with a Microfire 2.1×3 Digital Camera. 100× images were digitized and stored on CD using MS Pictureframe and Microfire Software. All compartment images were measured using a calibrated micrometer. An average of three measurements of each compartment for two slide images per biopsy was obtained and tabulated, and means and standard deviations were calculated.

`c1coc(CNc2ncnc3c2ncn3C2CCCCO2)c1` (centres unmarked) [6-Furfurylamino-9-(2-tetrahydropyranyl)purine]: the “Mean Nuclei Stained” value in the data set with SKH-1 hairless mice [1] is on record as 5.3 ± 4.2. In the data set on SKH-1 hairless mice [2], the average moisture content entry is recorded as “higher than that of the vehicle”.
For the compound `C/C(=C\CNc1ncnc2[nH]cnc12)CO` [Zeatin], the “Mean Nuclei Stained” value with SKH-1 hairless mice [1] is recorded as 3.5 ± 3.4 mm. In addition, the average moisture content result with SKH-1 hairless mice [2] is “higher than that of the vehicle”.
On to `CN[C@@H]1C[C@H]2O[C@@](C)([C@@H]1OC)n1c3ccccc3c3c4c(c5c6ccccc6n2c5c31)C(=O)NC4` [staurosporine, reference compound], for which the JC-1 staining result in data set [3] is “drastically reduced the uptake of JC-1 and J-aggregate formation”.
Take `CC1=C(/C=C/C(C)=C/C=C/C(C)=C/C(=O)O)C(C)(C)CCC1` [tretinoin]: the TEWL result in data set [4] was “increase in TEWL”. Further, the “Erythema score (Grade)” value in the data set on SKH-1 hairless mice [5] turned out to be 3. The “epidermal BrdU staining” value in the data set with SKH-1 hairless mice [1] (after 3 weeks of topical treatment) is “no epidermal BrdU staining”. Further, in the data set on SKH-1 hairless mice [6] (H&E stained biopsies), the skin compartment thickness entry was “increased both epidermal and dermal thickness”. Besides, the “histological evaluation of skin biopsies” value with SKH-1 hairless mice [6] was “marked increased thickness of the epidermis and inflammatory changes in the dermis”. In addition, in the data set with SKH-1 hairless mice [2] (course over 3 weeks of topical treatment), the “skin moisture content (skin conductance)” value is recorded as “significant decrease”.
